Our source for the TGI and GI50 values is PubChem BioAssay (NCI).

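Briefly, cells in 96-well plates were exposed to five compound concentrations for 48 h, and endpoints were estimated by linear interpolation. The concentration for 50% growth inhibition is given as GI50. TGI marks complete inhibition of growth.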 Where a SMILES comes first, the peptide text is derived from it. [ ]: non-standard residue; d: D form. The star is where a group is joined. ξ: configuration not given here. ξF = NC(Cc1ccccc1)C(=O)O; Cbz = O=C(OCc1ccccc1)*; Aib = CC(C)(N)C(=O)O

Some test systems named below: NCI-H522 lung; MDA-MB-231 breast; SR leukemia; KM12 colon; MDA-MB-435; 786-0 renal; MDA-N; BT-549 breast; HS 578T breast; DMS 114 small cell lung; M19-MEL melanoma.
What all share (assay): NCI anticancer screen, dose series, 48 h

For the molecule `C=C1C(=O)O[C@@H]2/C=C(\C)CC/C=C(\C)CC[C@@]12O`, the TGI in the assay with NCI-H522 lung was found to be 1.38 µM; with MDA-MB-231 breast, 22.8 µM; in the assay with SR leukemia, 10.8 µM; with KM12 colon, 25 µM; with MDA-MB-435, 7.29 µM; with 786-0 renal it was 2.71 µM. The results for the TGI with MDA-N, with BT-549 breast and in the assay with HS 578T breast were 6.42 µM, 7.81 µM and 22.7 µM, respectively.

With `COC(=O)C1=C(C)N2CCSC2(C)C(C(=O)OC)C1c1cccc(Cl)c1` (stereo not drawn), the TGI was determined as 66.7 µM in the assay on SR leukemia, 62.3 µM with KM12 colon, 44.6 µM with DMS 114 small cell lung and 31.9 µM in the assay with M19-MEL melanoma.

In the case of `CN(Cc1cn(O)c2nc(=N)nc(N)c-2n1)c1ccc(C(=O)NC23CC4CC(CC(C4)C2)C3)cc1`, the TGI in the assay with MDA-MB-231 breast, with SR leukemia, with KM12 colon, with MDA-MB-435, in the assay with 786-0 renal and in the assay with MDA-N was more than 100 µM in each case. Also, the TGI in the assay with BT-549 breast worked out at 79.1 µM; in the assay on HS 578T breast it was 40.4 µM.

For `CC1(CO)COS(=O)OC1` (stereo not drawn), the TGI in the assay on NCI-H522 lung, with MDA-MB-231 breast, in the assay on SR leukemia, in the assay on KM12 colon, with MDA-MB-435 and in the assay on MDA-N was more than 100 µM throughout. The same molecule registered a TGI in the assay with HS 578T breast of more than 100 µM.

For the molecule `O=C1c2cccnc2C(=O)c2c1c(C(=O)OCCN1CCCCC1)c1ccccn21`, the GI50 is 0.018 µM in the assay with NCI-H522 lung; 0.731 µM in the assay on MDA-MB-231 breast; 0.00698 µM with SR leukemia; 0.16 µM in the assay on KM12 colon; 0.0804 µM with MDA-MB-435; 0.152 µM in the assay on BT-549 breast. The GI50 in the assay with HS 578T breast was 0.0723 µM. For the same molecule, the TGI in the assay on NCI-H522 lung was 0.0992 µM; with MDA-MB-231 breast, 12.6 µM; in the assay on SR leukemia, 0.0828 µM; in the assay with KM12 colon, 9.02 µM; in the assay with MDA-MB-435 it was 0.829 µM; in the assay with BT-549 breast, 2.16 µM. This molecule gave a TGI in the assay on HS 578T breast of 0.376 µM.

Turning to `Nc1ccc(O)c2c1C(=O)c1c(N)ccc(O)c1C2=O`, the TGI in the assay on NCI-H522 lung, in the assay with KM12 colon, in the assay with DMS 114 small cell lung, with M19-MEL melanoma and in the assay with 786-0 renal was more than 100 µM throughout.

As to `Cc1cc2c(c(O)c1-c1c(C)cc(O)c3c1C(=O)C=CC3=O)C(=O)C=CC2=O`, the TGI is 4.88 µM in the assay with MDA-MB-231 breast; 0.265 µM in the assay with SR leukemia; 32.9 µM with KM12 colon; 4.03 µM in the assay on MDA-N; more than 25.5 µM in the assay with BT-549 breast; 32.9 µM with HS 578T breast.

`CCN1c2cc(Br)cc3[nH]c(=O)n(c23)CCC1C` (stereo not drawn): the TGI in the assay with MDA-MB-231 breast was 43.1 µM; in the assay on SR leukemia it was 65.9 µM; with KM12 colon, 47.4 µM; with MDA-MB-435, 16.8 µM; in the assay on 786-0 renal, 28.1 µM; in the assay with MDA-N it was 19.2 µM. In addition, the TGI was 31.2 µM in the assay with BT-549 breast and 28.9 µM with HS 578T breast.

For `OCC(O)CNc1ncnc2ccccc12` (stereo not drawn), the TGI in the assay with NCI-H522 lung, with MDA-MB-231 breast, in the assay with KM12 colon, with MDA-MB-435, in the assay on 786-0 renal and in the assay with MDA-N was more than 100 µM in each case. Also, the TGI with BT-549 breast and in the assay with HS 578T breast was more than 100 µM each time.

Regarding `CNC1Cc2c[nH]c3cccc(c23)C12C=C(C)C(=O)O2` (stereo not drawn), the TGI in the assay on NCI-H522 lung, in the assay on MDA-MB-231 breast, in the assay with SR leukemia, in the assay on KM12 colon, in the assay with MDA-MB-435 and with 786-0 renal was more than 100 µM in each case. Moreover, the TGI with MDA-N, with BT-549 breast and with HS 578T breast was more than 100 µM throughout.

Take `CCOC(=O)CNC(=O)C(Cc1ccccc1)NC(=O)C(C)(C)NC(=O)OCc1ccccc1` (stereo not drawn) (Cbz-[Aib]-[ξF]-Gly-OEt): the TGI in the assay on NCI-H522 lung, in the assay on MDA-MB-231 breast, in the assay on SR leukemia, in the assay with MDA-MB-435 and in the assay with MDA-N was more than 100 µM each time.

For the molecule `O=C(CSCC(=O)N/N=C/c1ccccc1)N/N=C\c1ccccc1`, the TGI in the assay on NCI-H522 lung is more than 100 µM; in the assay with MDA-MB-231 breast, more than 100 µM; in the assay on KM12 colon it was more than 100 µM; with MDA-MB-435, more than 100 µM; in the assay with 786-0 renal, more than 100 µM; in the assay on BT-549 breast, 18.9 µM. In the assay with HS 578T breast, this molecule registered a TGI of more than 100 µM.

Consider `NC(=O)C1CCCN1C(=O)C(N)Cc1ccccc1` (stereo not drawn) (H-Phe-Pro-NH2; configuration not given here), for which the TGI in the assay on NCI-H522 lung, in the assay on MDA-MB-231 breast, in the assay on SR leukemia, in the assay on MDA-MB-435 and in the assay on MDA-N was more than 100 µM throughout.

For the molecule `O=C(Oc1c(Cl)cc(C2(c3cc(Cl)c(OC(=O)c4ccccc4)c(Cl)c3)CCCCC2)cc1Cl)c1ccccc1`, the TGI in the assay on NCI-H522 lung was 29.3 µM; with MDA-MB-231 breast, 27.3 µM; with KM12 colon it was 23.9 µM; in the assay on MDA-MB-435, 24.7 µM; in the assay with 786-0 renal, 27.5 µM; with MDA-N, 25.6 µM. Moreover, the TGI in the assay with BT-549 breast was 27.9 µM; in the assay with HS 578T breast it was 32.4 µM.

As to `C[C@@H]1C(=O)O[C@H]1[C@H](O)CO`, the TGI in the assay with KM12 colon, in the assay with MDA-MB-435, in the assay with 786-0 renal, in the assay on MDA-N and in the assay on BT-549 breast was more than 100 µM in each case.
